Laboratory results taken from US7855076B2, “Use of discoidin domain receptor 1 (DDR1) and agents that affect the DDR1/collagen pathway” (The United States of America as represented by the …, priority 2002, dated 2010).

Tests used:
Assay type in all cases: cell-based, human
NF-κB [1] = assay: NF-κB luciferase reporter assay in THP-1 cells; details: DDR1b-overexpressing cells, 12 hours
Procedure: For the results shown in FIG. 7A, mock-transduced or DDR1b-overexpressing THP-1 cells were transfected with 10 μg of the NF-κB-Luc plasmid and 5 μg of pSV-β-galactosidese plasmid DNA (Promega, Madison, Wis.) per 100-mm tissue culture plate using Effectene Transfection Reagent (Qiagen, Valencia, Calif.), according to the manufacture's protocol. After a 12-hour incubation, cells were rinsed with phosphate buffered saline (PBS) and then incubated with 10 nM PMA on collagen-coated plates in the presence of absence of SB203580, PD98059, CAPE or dimethlysulfoxide (DMSO) for another 12 hours. Cells were collected and lysed using the Reporter Lysis Buffer (Promega, Madison, Wis.), and luciferase activity and β-galactosidase activities were measured according to the protocol provided by the manufacturer. The resulting luciferase activity was corrected based on the β-galactosidase activity in the same cell extract. For the results shown in FIG. 7B, DDR1b-overexpressing THP-1 cells were transfected with 10 μg of the pGLM-ENH, or pGLM-MA1MA2 (Ueda et al., J. Bio. Chem. 272: 31092-9, 1997) and 5 μg of pSV-β-galactosidese plasmid DNA (Promega, Madison, Wis.) per 100-mm tissue culture plate using Effectene Transfection Reagent (Qiagen, Valencia, Calif.) according to the manufacture's protocol. […] Cells were collected and lysed using the Reporter Lysis Buffer (Promega, Madison, Wis.), and luciferase activity and β-galactosidase activities were measured according to the protocol provided by the manufacturer. […]
Mock-transduced or DDR1b-overexpressing THP-1 cells were transfected with 10 μg of the NF-κB-Luc plasmid, pGL-ENH, or pGL-MA1MA2 and 5 μg of pSV-β-galactosidase plasmid DNA (Promega, Madison, Wis.) per 100-mm tissue culture plate using Effectene Transfection Reagent (Qiagen, Valencia, Calif.) according to the manufacture's protocol. […] Luciferase activity and β-galactosidase activities were measured according to the protocol provided by the manufacturer. […]

THP-1 cells [2] = assay: Cytokine and chemokine release from PMA-treated THP-1 cells by ELISA; details: DDR1b-overexpressing THP-1 cells, PMA, collagen-coated plates, 48 hours
Procedure: The production of DDR1a- or 1b-overexpressing THP-1 cells was previously described (Kamohara et al., FASEB J. 15:2724, 2001). Briefly, the human monocytic leukemic cell line, THP-1, was transduced with control retrovirus containing the vector only (mock-transduced) or retrovirus expressing DDR1a or DDR1b. THP-1 cells transduced by each virus were selected with G418, and cloned by limiting dilution. The cloned THP-1 cells were maintained in RPMI 1640 medium supplemented with 100 μg/ml gentamycin and 10% FCS (complete medium). Cells were plated at 1×10^6/ml and treated with PMA (10 nM) for variable times on uncoated or collagen-coated tissue culture plates for quantification of cytokine or chemokine release.
In addition, the concentration of MCP-1 in the culture supernatant of each cell line was measured by ELISA. The concentration of MCP-1 was measured in the Lymphokine Testing Laboratory, Clinical Services Program, SAIC-Frederick (Frederick, Md.) by using an enzyme-linked immunosorbent assay (ELISA) kit (R&D Systems, Minneapolis, Minn.) specific for the chemokine.
In addition, the concentrations of IL-1β, IL-8, and MIP-1α in the culture supernatants of each cell line were quantified by ELISA (FIG. 6). The concentration of IL-1β, IL-8, and MIP-1α were measured in the Lymphokine Testing Laboratory, Clinical Services Program, SAIC-Frederick (Frederick, Md.) by using enzyme-linked immunosorbent assay (ELISA) kits (R&D Systems, Minneapolis, Minn.) specific for each human cytokine and chemokine. […]

NF-κB [3] = assay: Nuclear translocation of NF-κB by EMSA; details: DDR1b-overexpressing cells on collagen-coated plates
Procedure: Nuclear translocation of NF-κB was examined by EMSA. Nuclear extracts were prepared by a method previously reported (Ueda et al., J. Biol. Chem. 272:31092, 1997), and aliquots were frozen at −80° C. For EMSA, end-labeled ^32P-oligonucleotide probes corresponding to the NF-KB binding site of the Ig κ-chain (5′-[…]-3′) (SEQ ID NO: 15) or MCP-1 (A2 site; 5′-[…]-3′) (SEQ ID NO: 16) gene were used. Each probe was incubated with 5 μg of nuclear extracts in 20 μl of binding cocktail (50 mM Tris-HCl, pH 7.4, 25 MM MgCl2, 0.5 mM DTT, 50% glycerol) at 4° C. for 15 minutes. The DNA-protein complexes were resolved on a 5% polyacrylanide gel. The dried gels were exposed to X-ray films.

p38 MAP kinase = assay: Phosphorylation of p38 MAP kinase in PMA-treated THP-1 cells, Western blotting; details: DDR1b-overexpressing cells treated before PMA-treatment
Procedure: Parental, mock, DDR1a- or DDR1b-overexpressing THP-1 cells were plated at 5×10^6/ml on uncoated tissue culture plates and stimulated with PMA (10 nM) for 24 hours, and then starved in RMPI 1640 without FCS for 10 hours. Subsequently cells were washed three times with PBS, and then incubated in the presence of 50 μg/ml collagen type I for various times.
Ten million cells were lysed on ice for 20 minutes in a buffer containing 50 mM NaCl, 20 mM Tris-HCl, 50 mM sodium fluoride, 30 mM Na4P2O7, 5 mM EGTA, 3 mM sodium orthovanadate, 1% Triton X-100, 1 mg/ml leupeptin, 1 mM PMSF, 1 mg/ml aprotinin, 1 mg/ml pepstatinA and 100 μM sodium orthovanadate treated with H2O2. A lysis buffer containing 150 mM NaCl, 50 mM HEPES, 1% Triton-X 10% glycerol, 1 mM sodium fluoride, 1 mM EDTA, 2 mM sodium orthovanadate, 1 mg/ml leupeptin, 1 mM PMSF, 1 mg/ml aprotinin, 1 mg/ml pepstatinA and 100 μM sodium orthovanadate treated with H2O2, was also used for immunoprecipitation with anti-Shc Ab. The lysates were spun in a microcentrifuge for 20 minutes and the supernatants were collected. […]
Eluted proteins were analyzed on 8% polyacrylamide gels by SDS-PAGE and transferred electrophoretically to nitrocellulose membranes at 150 mA for 1 hour by a semi-dry system. […] To detect phosphorylated or nonphosphorylated p38 MAP kinase or ATF-2, 20 μl of cell lysates were directly mixed with 20 μl of sample buffer and then analyzed.
Downstream signaling molecules that may play a role in the up-regulation of HLA-DR in collagen-activated PMA-treated DDR1b-overexpressing cells were identified in the following manner. […] Phosphorylation of p38 MAP kinase was first detected 30 minutes after collagen activation of DDR1b-overexpressing cells and the level of phosphorylation increased thereafter. […] Phosphorylation of p38 MAP kinase was not detected in DDR1a-overexpressing cells up to 120 minutes. […] Phosphorylation of other members of the MAP kinase family, ERK1, ERK2, and JNK could not be detected in collagen-activated PMA-treated DDR1b-overexpressing cells. […]

THP-1 cells [4] = assay: Flow cytometry of HLA-DR, CD11c, CD14, CD40 on PMA-treated THP-1 cells
Procedure: FIG. 5 is a graph showing the effects of collagen-activation of two DDR1 isoforms on the expression of CD11c, CD14, and CD40. Each cell line was plated at 5×10^6 cells/ml on either uncoated or collagen-coated plates and incubated at 37° C. for 24 hours in the presence of 10 nM PMA. Anti-1β integrin antibody (10 μg/ml) was used to block the effect of 1β integrin-collagen interaction. The percentage of CD11c, CD14, or CD40-positive cells is shown. Data are presented as the mean ±SD from three independent experiments.
Parental, mock, DDR1a-overexpressing, or DDR1b overexpressing THP-1 cells were plated at 5×10^6 cells/ml on either uncoated or collagen-coated plates and incubated at 37° C. for 24 or 48 hours in the presence of 10 nM PMA. One hundred thousand cells were suspended in 50 μl of cold PBS containing 0.1% NaN3, […] BSA and 200 μg/ml human IgG in a Falcon 2052 tube, and incubated for 10 minutes on ice. One μg of mouse monoclonal antibody against CD11c, CD14 CD40, or HLA-DR, or control mouse IgG were added to each tube and the cells were incubated for another 15 minutes on ice. The cells were washed with PBS, and then incubated with 1 μg of FITC-conjugated goat anti-mouse IgG for 15 minutes on ice. At the end of incubation, propidium iodide (PI) (100 μM) was added to each tube. The cells were washed by PBS, and subsequently analyzed by using a FACS scan (Becton Dickinson). Dead cells, determined by the incorporation of PI, were gated out. Results were processed by using the Cellquest software (Becton Dickinson).
The cells were then rinsed three times with RPMI 1640 containing 10% FCS, and incubated either with the p38 MAP kinase inhibitor SB203580, the MEK (MAP or ERK kinase) ½ inhibitor PD98059, or dimethylsulfoxide (DMSO) for 30 minutes, followed by an additional 12 hour incubation in the presence of 10 nM PMA plus collagen. The expression of HLA-DR was analyzed by flow cytometry.

DDR1 mRNA = DDR1 mRNA expression in PBMC by Northern blotting; details: 8 hours, TNF-α 5 ng/ml, IL-1β 10 ng/ml, IFN-γ 50 U/ml, GM-CSF 10 ng/ml, LPS 1 μg/ml, PHA 5 μg/ml
Procedure: PMN and PBMC were maintained at a density of 5×10^6 cells/ml in the complete medium in six-well tissue culture cluster (Coster, Cambridge, Mass.; 3 ml/well). Total RNA was extracted from each culture by using TRIZOL® Reagent. PolyA mRNA was purified on Oligotex columns (Qiagen, Valencia, Calif.). Northern blot analysis was performed as described (Yoshimura, J. Immunol. 150:5025, 1993), except that ULTRAhyb (Ambion) was used. A human DDR1 cDNA (757-bp) was obtained by PCR from a U-105 human glioblastoma cell line cDNA library and was ligated into the EcoRI/HindIII site of the pBluescript (Stratagene, La Jolla, Calif.). The sense primer was 5′-[…]-3′ (SEQ ID NO: 2; corresponding to residues between 68 and 87 in the nucleotide sequence of the trkE cDNA, GenBank accession number X74979) and the antisense primer was 5′-[…]-3′ (SEQ ID NO: 3; corresponding to residues between 805 and 824 in the nucleotide sequence of the trkE cDNA).
Freshly isolated PBMC expressed only a low level of DDR1 mRNA. The expression level was increased about eightfold when the cells were incubated in either RPMI 1640 or RPMI 1640 containing 10% FCS.

`O=C(/C=C/c1ccc(O)c(O)c1)OCCc1ccccc1` [CAPE] was tested, and the “increase in luciferase activity induced by PMA plus collagen” value (NF-κB [1]) was “completely inhibited”, the “collagen-induced up-regulation of IL-8 release” value (THP-1 cells [2]) was “inhibited” and the “collagen-induced up-regulation of MCP-1 release” value (THP-1 cells [2]) was “inhibited”. For the same molecule, the “collagen-induced up-regulation of MIP-1α release” value (THP-1 cells [2]) was “inhibited” and the “increased NF-κB/DNA binding” value (NF-κB [3]) was “completely abolished”.

`C[C@@H]1C[C@@H]([C@H](O)CC2CC(=O)NC(=O)C2)C(=O)[C@@H](C)C1` [CHX, cycloheximide, reference compound] was tested, and the “phosphorylation of p38 MAP kinase in response to collagen” value (p38 MAP kinase) was “completely inhibited”.

`COc1cccc(-c2cc(=O)c3ccccc3o2)c1N` [PD98059] was tested, and the “collagen-induced up-regulation of IL-1β release” value (THP-1 cells [2]) was “no effect”, the “collagen-induced up-regulation of IL-8 release” value (THP-1 cells [2]) was “no effect” and the “collagen-induced up-regulation of MCP-1 release” value (THP-1 cells [2]) was “no effect”. The “collagen-induced up-regulation of MIP-1α release” value (THP-1 cells [2]) was “no effect” and the “expression of HLA-DR” value (THP-1 cells [4]; collagen-activated PMA-treated DDR1b-overexpressing cells, 24 hours) was “no effect”.

With `CCCCCCCCCCCCCC(=O)O[C@@H]1[C@@H](C)[C@@]2(O)[C@@H](C=C(CO)C[C@]3(O)C(=O)C(C)=C[C@@H]23)[C@@H]2C(C)(C)[C@]12OC(C)=O` [PMA, phorbol 12-myristate 13-acetate, reference compound] the HLA-DR-positive cells (THP-1 cells [4]; parental, mock, DDR1a- or DDR1b-overexpressing THP-1 cells, uncoated plates, 48 hours) was 26 to 28%.

IL-1β: human recombinant interleukin-1β was tested, and the “level of DDR1 mRNA expression” value (DDR1 mRNA) was “further augmented”.
